According to patent publication US5677420A, “Phospholipase c-inhibiting peptides” (Kyowa Hakko Kogyo Co., Ltd., priority 1995, dated 1997):
Values after ≈ are worked out from the molar mass of the structure shown. Square brackets hold non-standard residues; d marks the D form. Peptide text beside a SMILES is read from it. Aun = NCCCCCCCCCCC(=O)O

Key:
[1] = test system: Klebsiella pneumoniae ATCC 10031; assay: Antibacterial activity, agar dilution method; format: cell-based; conditions: medium pH 7.0
Protocol: (§1) The antibacterial activity was determined by the agar dilution method using a medium (pH 7.0) which comprises 3 g/l Bacto-tryptone (Difco Laboratories), 1 g/l meat extract, 1 g/l glucose and 16 g/l agar.

[2] = test system: Proteus vulgaris ATCC 6897; assay: Antibacterial activity, agar dilution method; format: cell-based; conditions: medium pH 7.0
Protocol: as §1

[3] = test system: KMS-4 cells; assay: Cell growth-inhibiting activity (BrdU incorporation, cell growth detection kit); format: cell-based; conditions: Concentration 1 μM, culturing with peptide for 17 hours
Protocol: Cell growth-inhibiting activity The cell growth-inhibiting activity was determined using a cell growth detection kit (Amersham) in the following manner. KMS-4 cells [M. Nanba et al, International Journal of Cancer, 32, 697 (1983)]were suspended in DMEM medium (Nissui Pharmaceutical Co., Ltd.) containing 10% fetal calf serum at a density of 1-2×10^4 cells/ml, and 1 ml of the cell suspension was put into each well of a 24-well plate (Corning Inc.). The cells were cultured in a CO2 incubator (37° C., 5% CO2) for 2 days. Then, the medium was replaced with a fresh DMEM medium containing 10% fetal calf serum, and the test peptide was added thereto, followed by culturing for 17 hours. […] The number of cells which incorporated BrdU and the total number of cells within one field of vision of a microscope (approximately 200 cells) were determined, and the proportion (%) of stained cells per field of vision was calculated. […] The cell growth-inhibiting activity was calculated in the following manner. That is, the cell growth inhibition rate was calculated according to the following equation: X (%)=(1-B/A)×100 where A is the growth activity when no peptide was added, and B is the growth activity when the test peptide was added.

[4] = molecular target: T1, PLC-γ1 (Bos taurus, UniProt P08487); assay: PLC-inhibiting activity (release of inositol phosphate from [3H]PIP2); format: biochemical; conditions: Concentration 123 μM; PLC-γ1 from bovine thymus, 37° C., 10 minutes
T1 construct: A sample of PLC-γ1 was prepared from bovine thymus according to the method described in Y. Honma et al; from tissue; host or cells: bovine thymus
T1 sequence (P08487 1-1291): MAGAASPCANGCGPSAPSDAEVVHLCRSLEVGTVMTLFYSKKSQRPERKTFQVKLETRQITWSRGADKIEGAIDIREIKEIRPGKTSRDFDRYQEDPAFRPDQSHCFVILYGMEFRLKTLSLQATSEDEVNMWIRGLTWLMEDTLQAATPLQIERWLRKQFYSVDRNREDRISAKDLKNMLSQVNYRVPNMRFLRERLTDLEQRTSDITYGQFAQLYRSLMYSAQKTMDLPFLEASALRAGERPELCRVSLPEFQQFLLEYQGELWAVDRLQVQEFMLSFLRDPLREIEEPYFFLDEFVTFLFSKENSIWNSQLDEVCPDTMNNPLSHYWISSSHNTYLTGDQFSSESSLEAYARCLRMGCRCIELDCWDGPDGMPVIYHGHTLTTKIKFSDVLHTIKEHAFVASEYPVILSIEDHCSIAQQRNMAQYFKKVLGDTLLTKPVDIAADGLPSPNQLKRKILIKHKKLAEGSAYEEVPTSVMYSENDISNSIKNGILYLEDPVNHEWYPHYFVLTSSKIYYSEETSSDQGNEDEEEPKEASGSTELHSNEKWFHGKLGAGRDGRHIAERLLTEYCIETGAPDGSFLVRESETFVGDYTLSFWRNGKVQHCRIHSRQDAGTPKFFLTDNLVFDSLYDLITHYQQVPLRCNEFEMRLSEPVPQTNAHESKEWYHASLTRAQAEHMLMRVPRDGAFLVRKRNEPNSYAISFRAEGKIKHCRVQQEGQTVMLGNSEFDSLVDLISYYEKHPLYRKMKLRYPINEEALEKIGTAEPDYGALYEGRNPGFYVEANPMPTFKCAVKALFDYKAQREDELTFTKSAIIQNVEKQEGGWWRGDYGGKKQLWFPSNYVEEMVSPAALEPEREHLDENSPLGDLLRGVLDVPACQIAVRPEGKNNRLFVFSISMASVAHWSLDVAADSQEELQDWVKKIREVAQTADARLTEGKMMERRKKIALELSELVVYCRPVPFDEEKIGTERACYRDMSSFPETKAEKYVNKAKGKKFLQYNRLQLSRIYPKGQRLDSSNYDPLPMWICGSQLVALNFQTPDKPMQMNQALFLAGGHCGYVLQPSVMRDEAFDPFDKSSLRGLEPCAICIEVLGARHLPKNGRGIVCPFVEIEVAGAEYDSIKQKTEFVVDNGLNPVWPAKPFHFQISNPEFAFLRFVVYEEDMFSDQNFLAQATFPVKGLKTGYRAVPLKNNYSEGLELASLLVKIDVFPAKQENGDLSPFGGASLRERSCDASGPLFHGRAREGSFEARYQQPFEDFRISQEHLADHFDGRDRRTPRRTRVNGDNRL
Protocol: PLC-inhibiting activity A sample of PLC-γ1 was prepared from bovine thymus according to the method described in Y. Honma et al., Biochem. J., 269, 13 (1990). A solution having the composition shown in Table 2 below was prepared on ice and was heated to 37° C. to start reaction. After incubation for 10 minutes, 2 ml of a chloroform/methanol mixture (2:1, v/v) was added thereto to stop the reaction. The resulting inositol phosphate was extracted with 0.5 ml of 1N hydrochloric acid. The extract was separated into two liquid phases by centrifugation (2000×g, 3 minutes), and the amount of ^3 H contained in the supernatant (0.7 ml) was measured with a scintillation counter. […] (a) 2-(N-Morpholino)ethanesulfonic acid (b) The peptides and their concentrations in aqueous solutions provided for the test are shown in Table 3. […] The inhibition rate (X) was calculated according to the following equation: X (%)=(A-C)/(B-C)×100 where A is the obtained value of specific radioactivity, B is the value of specific radioactivity obtained when the same amount of water was added instead of the aqueous solution of the test peptide, and C is the value of specific radioactivity obtained when the same amount of water was added instead of the sample and the aqueous solution of the test peptide.

[5] = test system: Pseudomonas aeruginosa Bin H No. 1; assay: Antibacterial activity, agar dilution method; format: cell-based; conditions: medium pH 7.0
Protocol: as §1

[6] = test system: Bacillus subtilis No. 10707; assay: Antibacterial activity, agar dilution method; format: cell-based; conditions: medium pH 7.0
Protocol: as §1

Row | Compound | MIC (μg/ml) KP [1] [µg/mL] | MIC (μg/ml) PV [2] [µg/mL] | Inhibition rate (%) (cell growth) [3] | Inhibition rate (%) [4] [%] | MIC (μg/ml) PA [5] [µg/mL] | MIC (μg/ml) BS [6] [µg/mL]
1 | CSCC[C@H](NC(=O)[C@H](CCCCN)NC(=O)[C@H](CCCNC(=N)N)NC(=O)[C@H](Cc1ccc(O)cc1)NC(=O)[C@H](CC(C)C)NC(C)=O)C(=O)N[C@@H](CCCNC(=N)N)C(=O)N[C@@H](CC(C)C)C(=O)N[C@@H](CCCNC(=N)N)C(=O)N[C@@H](Cc1ccc(O)cc1)C(=O)N1CCC[C@H]1C(=O)N[C@H](C(=O)NCCCCCCCCCCC(N)=O)C(C)C [Compound (I-6), Ac-Leu-Tyr-Arg-Lys-Met-Arg-Leu-Arg-Tyr-Pro-Val-Aud-NH2] (Ac-LYRKMRLRYPV[Aun]-NH2) | 43 (≈ 25 µM) | – | – | – | – | –
2 | Ac-Leu-Tyr-Arg-Lys-Met-Arg-Leu-Arg-Tyr-Pro-Val-Abu-NH2 (Ac-LYRKMRLRYPVX-NH2; not fully specified (residue 12); printed as $CH_3CO$—Leu—Tyr—Arg—Lys—Met—Arg—Leu—Arg—Tyr—Pro—Val—NH—$(CH_2)_3CONH_2$) [Compound (I-1)] | – | 83 | 10 | 85 | 167 | 167
